Experimental data as given in US20100144860A1, “Transglutaminase Inhibitor Comprising EGCG And A Method For Producing Thereof” (priority 2007, published 2010).

Molecular target: T1, Transglutaminase 2 (Cavia cutleri, UniProt P08587)
T1 construct: purchased Sigma-Aldrich T5398
T1 sequence (P08587 1-690): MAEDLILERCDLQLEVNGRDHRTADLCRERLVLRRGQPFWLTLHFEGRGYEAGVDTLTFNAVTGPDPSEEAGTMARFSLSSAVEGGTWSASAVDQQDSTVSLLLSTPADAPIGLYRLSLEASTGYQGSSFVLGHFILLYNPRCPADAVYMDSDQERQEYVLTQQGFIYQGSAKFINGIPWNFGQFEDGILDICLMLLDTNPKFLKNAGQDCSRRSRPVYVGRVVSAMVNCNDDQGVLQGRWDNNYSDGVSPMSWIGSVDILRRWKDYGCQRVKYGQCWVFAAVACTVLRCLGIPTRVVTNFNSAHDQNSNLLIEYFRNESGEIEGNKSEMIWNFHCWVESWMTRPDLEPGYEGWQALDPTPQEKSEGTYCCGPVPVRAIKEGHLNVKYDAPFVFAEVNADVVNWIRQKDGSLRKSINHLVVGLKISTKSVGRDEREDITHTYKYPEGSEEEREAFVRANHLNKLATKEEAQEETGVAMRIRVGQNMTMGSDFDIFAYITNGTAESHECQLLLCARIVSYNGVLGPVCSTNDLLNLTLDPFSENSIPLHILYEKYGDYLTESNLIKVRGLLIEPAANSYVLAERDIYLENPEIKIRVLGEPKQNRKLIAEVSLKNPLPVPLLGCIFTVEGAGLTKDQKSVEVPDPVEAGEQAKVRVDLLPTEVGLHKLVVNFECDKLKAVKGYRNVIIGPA
Assay: In vitro assay for inhibition of transglutaminase activity ([1,4-14C] putrescine incorporation into succinylated casein)
Assay type: biochemical
Settings: for activity of transglutaminase, Mean: mean of three assays, relative to DMSO control; for activity of transglutaminase, Assay 1 / activity of transglutaminase, Assay 2 / activity of transglutaminase, Assay 3: radioactivity compensated by DMSO-control group (=1.0000)
Method: To measure the inhibitory activity of EGCG which competes with putrescine, the transglutaminase-catalyzed reaction between [1,4,-^14C] putrescine and succinylated casein were observed.
Succinylated casein was purchased from Calbiochem (Cat. No. 573464), and 1 g of the powder was dissolved in 50 ml of a reaction buffer solution containing 5 mM DTT (0.1 M Tris-acetate (pH 8.0), 10 mM CaCl2, 0.15 M NaCl, 1.0 mM EDTA). This solution was stored in a deep freezer for further use. [1,4-^14C] Putrescine dihydrochloride was purchased from GE Healthcare (Cat. No. CFA301), and the stock solution was diluted with distilled water to yield a radiological dose of 5 μCi/ml. Transglutaminase 2 was purchased from Sigma-Aldrich (Cat. No. T5398), and diluted with distilled water to yield a final concentration of 1 unit/ml. EGCG (Sigma-Aldrich, Cat. No. E4143) was dissolved in DMSO at a concentration of 10 mM to prepare its stock solution, and the stock solution was diluted with DMSO to prepare solutions having various concentrations.
450 μl of succinylated casein solution and 50 μl of [1,4-^14C] putrescine dihydrochloride solution were mixed together to prepare a substrate solution. 96 μl of the reaction buffer, 3 μl of the stock solution of EGCG, and 1 μl of the stock solution of transglutaminase were mixed together to prepare each sample, followed by incubation at 37° C. for 10 min. 500 μl of the substrate solution and 100 μl of sample solution were mixed well, and the mixture was incubated at 37° C. for 2 hrs, before termination with 4.5 ml of cold (4° C.) 7.5% TCA. The final solution was stored at 4° C. for 1 hr. The TCA-precipitates were filtered through a GF/glass fiber filter, washed with 25 ml of cold 5% TCA, and dried. Radioactivity of crosslinked protein was measured using a (β-counter (Beckman Coulter), and compensated by the activity of DMSO-control group as a standard. The activity of transglutaminase was represented by the measured values. The assay was repeated three times under the same conditions, and the results are shown in the following Table 1.

O=C(O[C@@H]1Cc2c(O)cc(O)cc2O[C@@H]1c1cc(O)c(O)c(O)c1)c1cc(O)c(O)c(O)c1 [EGCG, [2R, 3R]-2[3,4,5-trihydroxyphenyl]-3,4-dihydro-1[2H]-benzopyran-3,5,7-triol-3-[3,4,5-trihydroxybenzonate]]
activity of transglutaminase, Mean (EGCG 0.5 μM): 0.5383 | activity of transglutaminase, Assay 1 (EGCG 0.5 μM): 0.5166 | activity of transglutaminase, Assay 2 (EGCG 0.5 μM): 0.5690 | activity of transglutaminase, Assay 3 (EGCG 0.5 μM): 0.5295 | activity of transglutaminase, Mean (EGCG 1.0 μM): 0.3677 | activity of transglutaminase, Assay 1 (EGCG 1.0 μM): 0.3950 | activity of transglutaminase, Assay 2 (EGCG 1.0 μM): 0.3873 | activity of transglutaminase, Assay 3 (EGCG 1.0 μM): 0.3207 | activity of transglutaminase, Mean (EGCG 2.0 μM): 0.2001 | activity of transglutaminase, Assay 1 (EGCG 2.0 μM): 0.2009 | activity of transglutaminase, Assay 2 (EGCG 2.0 μM): 0.2288 | activity of transglutaminase, Assay 3 (EGCG 2.0 μM): 0.1707 | activity of transglutaminase, Mean (EGCG 3.0 μM): 0.1765 | activity of transglutaminase, Assay 1 (EGCG 3.0 μM): 0.1911 | activity of transglutaminase, Assay 2 (EGCG 3.0 μM): 0.1902 | activity of transglutaminase, Assay 3 (EGCG 3.0 μM): 0.1482 | activity of transglutaminase, Mean (EGCG 5.0 μM): 0.1064 | activity of transglutaminase, Assay 1 (EGCG 5.0 μM): 0.1246 | activity of transglutaminase, Assay 2 (EGCG 5.0 μM): 0.0947 | activity of transglutaminase, Assay 3 (EGCG 5.0 μM): 0.1000 | activity of transglutaminase, Mean (EGCG 10.0 μM): 0.0879 | activity of transglutaminase, Assay 1 (EGCG 10.0 μM): 0.1029 | activity of transglutaminase, Assay 2 (EGCG 10.0 μM): 0.0726 | activity of transglutaminase, Assay 3 (EGCG 10.0 μM): 0.0881 | activity of transglutaminase, Mean (EGCG 50.0 μM): 0.0871 | activity of transglutaminase, Assay 1 (EGCG 50.0 μM): 0.0861 | activity of transglutaminase, Assay 2 (EGCG 50.0 μM): 0.0903 | activity of transglutaminase, Assay 3 (EGCG 50.0 μM): 0.0849 | inhibition of the activity of transglutaminase (in words) (FIG. 1, relative inhibition activities): inhibited in an EGCG concentration-dependent manner | IC50 (calculated by nonlinear regression from mean values): 517 nM
